The values below come from patent publication US7279179B2, “Liposome-entrapped topoisomerase inhibitors” (ALZA Corporation, priority 1988, dated 2007).

Data set [1] can be described thus: Plasma pharmacokinetics of liposome-entrapped and free CKD-602 in rats. As to conditions: 1 mg/kg.
Data set [2] relates to HT-29 colon cancer xenograft. Kind of data set: HT-29 xenograft efficacy of liposome-entrapped CKD-602 (Example 5). Type of data set: in vivo, mice.
A further data set can be described thus: in vivo. The note with it: rat.
For data set [3], the system named is HT-29 subcutaneous xenograft tumor. Type of data set: in vivo.
A short description of data set [4]: Plasma pharmacokinetics of liposome-entrapped and free topotecan in rats. The format is in vivo. As to conditions: for Vol. Dist. / elimination rate constant: i.v.; for AUC / Cmax / clearance / half-life: rat, plasma, iv; for half-life: read-out: T ½ (converted). The procedure: FIGS. 4A–4B show the plasma concentration of topotecan as a function of time after administration to rats. […] FIG. 4B compares the two forms of the drug at a dosage of 5 mg/kg.

[5] abbreviates: 20 mg/kg i.v. days 11, 18, 25, animals/group.
The mark [6] stands for this setting: 25 mg/kg i.v. days 9, 16, 23, groups of 12 mice.

As for `CC[C@@]1(O)C(=O)OCc2c1cc1n(c2=O)Cc2c-1nc1ccccc1c2CCNC(C)C` [free CKD602], in data set [1], the AUC amounted to 0.37 µg/mL/h and the calculated half-life was 12 min. In data set [2] (20 mg/kg), this molecule showed a tumor growth rate of 15.21 mm^3 per day. In addition, in data set [2] (20 mg/kg i.v. days 11, 18, 25), the “% T/C Day 29” value was determined as 129.1%, the “% T/C Day 33” value worked out at 120.1% and the “% T/C Day 36” value came to 99.9%. Also, in data set [2] (setting [5]), the “Complete Remission” value is 0/6, the Non-Responsive is recorded as 6/6 and the “Partial Remission” value is on record as 0/6.

`CC[C@@]1(O)C(=O)OCc2c1cc1n(c2=O)Cc2c-1nc1cc3c(cc1c2CN1CCN(C)CC1)OCCO3` [free MPE-camptothecin, 7-(4-methyl-piperazino-methylene)-10,11-ethylenedioxy-20(S)-camptothecin] gave a half-life in “in vivo” of roughly 50 min.

In general, Cmax refers to the maximum level reached in the sampled fluid or tissue. What is called clearance is the volume of plasma or blood freed of the substance per unit of time. Low values mean a low capacity for elimination, high ones a high capacity for elimination. In turn, `CC[C@@]1(O)C(=O)OCc2c1cc1n(c2=O)Cc2cc3c(CN(C)C)c(O)ccc3nc2-1` [free topotecan, 9-dimethyl-aminomethyl-10-hydroxycamptothecin] had a tumor growth rate in data set [3] (25 mg/kg) of 14.1 mm^3 per day. For the same molecule, in data set [3] (25 mg/kg i.v. days 9, 16, 23), the “% T/C Day 29” value is given as 82.8%, the “% T/C Day 33” value was determined as 79.0% and the “% T/C Day 36” value was 85.9%. Also, in data set [3] (setting [6]), the “Complete Remission (number of animals)” value was 0, the “Non-Responsive (number of animals)” value worked out at 11 and the “Partial Remission (number of animals)” value is recorded as 1. Further, in data set [4] (Dosage = 2 mg/kg), the “Vol. Dist.” value is 173 mL, the elimination rate constant amounted to 3.45 h⁻¹, the AUC is 570 ng·h/mL and the maximum concentration (Cmax) was 2890 ng/mL. In data set [4] (Dosage = 2 mg/kg), the clearance was 14.8 mL/min and the half-life is 12 min. Further, in data set [4] (Dosage = 5 mg/kg), the “Vol. Dist.” value turned out to be 278 mL, the elimination rate constant turned out to be 2.33 h⁻¹, the AUC worked out at 1570 ng·h/mL and the highest level (Cmax) was 8230 ng/mL. Moreover, in data set [4] (Dosage = 5 mg/kg), the clearance is 13.7 mL/min and the half-life was 18 min.
